Assay results reported in patent publication US8097650B2, “Method of treating a condition associated with phosphorylation of TASK-1” (The Trustees of Columbia University In The City of New York, priority 2005, dated 2012).

Legend:
[1] = test system: murine TASK-1; experiment: TASK-1 current expressed in CHO cells (whole-cell ramp clamp); format: cell-based, mouse
Outline: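 CHO cells transiently expressing murine TASK-1, with GFP or CD8 used to identify transfected cells, were studied 48 h after transfection. Whole-cell ramp-clamp recording at room temperature in Tyrode's pH 7.4 with a K-aspartate pipette solution. Records were corrected for a −9.8 mV junction potential and given as mean±SEM.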

[2] = molecular target: T1, mTRAAK (Mus musculus, UniProt O88454); experiment: mTRAAK current in HEK cells (ramp clamp); format: cell-based; conditions: read-out: EC50 for activation of TRAAK current
T1 construct: expressed in transfected cells; host or cells: HEK cells
T1 sequence (O88454 1-398): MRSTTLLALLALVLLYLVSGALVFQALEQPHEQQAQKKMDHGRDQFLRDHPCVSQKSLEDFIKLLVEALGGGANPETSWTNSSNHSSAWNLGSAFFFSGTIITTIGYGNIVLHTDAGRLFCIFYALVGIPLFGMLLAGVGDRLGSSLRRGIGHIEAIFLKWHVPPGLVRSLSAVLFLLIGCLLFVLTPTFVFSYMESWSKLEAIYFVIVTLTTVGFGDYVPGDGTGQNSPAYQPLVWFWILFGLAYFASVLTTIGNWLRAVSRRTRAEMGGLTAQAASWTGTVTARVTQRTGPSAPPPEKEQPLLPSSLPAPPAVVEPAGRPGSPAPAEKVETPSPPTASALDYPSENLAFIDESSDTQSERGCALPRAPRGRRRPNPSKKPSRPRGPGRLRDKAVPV
Description: FIG. 21. CHO cells (hTREK-1, hTASK-1) or HEK cells (mTRAAK) were co-transfected with plasmids encoding one of the two pore domain channels and GFP using the GeneJammer reagent. After 48-60 h, the expressed current was measured using a ramp protocol while the cells were perfused with regular Tyrode's solution containing varying concentrations of ONO-RS-082 (range of concentration from 10 nM to 500 μM as noted in FIG. 21) until a steady state was reached. Each cell was exposed to only one concentration of drug. Panel A: TREK-1 current was determined using a ramp clamp, and the percent increase induced by ONO-RS-082 was measured at the most positive imposed voltage (n≧5). The EC50 for activation was around 3 μM and the basal and ONO-activated current densities are noted. Panel B: TASK-1 current was determined using a ramp clamp in Tyrode's solution at pH=8 and the percent increase induced by ONO-RS-082 was measured at the most positive imposed voltage (n≧4). The EC50 was around 8 μM and the basal and ONO-activated current densities are noted. Panel C: TRAAK current was determined using a ramp clamp, and the percent increase induced by ONO-RS-082 was measured at the most positive imposed voltage (n≧4). The EC50 was around 0.9 μM and the basal and ONO-activated current densities are noted.

SMILES	TASK-1 current density in the presence of drug ([1]; +30 mV, C-PAF 185 nM or PMA 100 nM, no peptide) [pA/pF]	inhibition of TASK-1 current ([1]; +30 mV, PMA 100 nM (n=17), C-PAF 185 nM (n=20)) [%]	time for decrease in TASK-1 current to reach steady state ([1]; C-PAF 185 nM) [min]	decrease in the mean current density ([1]; C-PAF 185 nM, +30 mV, n=9) [%]	effect on expressed TASK-1 current ([1]; C-PAF 185 nM, Example 1)	TASK-1 current density after drug ([1]; PKCε-inhibitor peptide 100 nM in pipette, C-PAF 185 nM or PMA 100 nM) [pA/pF]	I-V relation after washout, deviation from control value ([1]; after washout of C-PAF 185 nM) [%]	C-PAF inhibition of TASK-1 current ([1]; modified Tyrode's, elevated K+) [%]	C-PAF-induced inhibition of TASK-1 ([1]; scrambled peptide in pipette) [%]	EC50 [2] [nM]
CCCCCCCCCCCCCCCCOC[C@H](COP(=O)([O-])OCC[N+](C)(C)C)OC(=O)NC [C-PAF, carbamyl-platelet-activating factor]	60.2±14.3	12.1±1.0	≤ 2	12	reduced	25.4±12.4	≤ 5	10.2±1.8	8.4±1.5	
CCCCCc1ccc(C=CC(=O)Nc2cc(Cl)ccc2C(=O)O)cc1 [ONO-RS-082]										~900
